Results reported in ChEMBL document CHEMBL3045527, “Herbicides for control of isoproturon-resistant Littleseed Canarygrass (Phalaris minor) in wheat” (2008).

Experiments:
Type in all cases: functional
Phalaris minor [1] = experiment: Herbicidal activity against isoproturon-resistant Phalaris minor infested wheat field assessed as wheat yield at 60 g/ha applied at 35 days after sowing through sprayer measured 95 days after sowing (reference value: 3.05 t/ha)
Phalaris minor [2] = experiment: Herbicidal activity against isoproturon-resistant Phalaris minor infested wheat field assessed as weed dry weight at 60 g/ha applied at 32 to 35 days after sowing through sprayer measured 100 days after sowing (reference value: 313.7 g/m2)
Medicago polymorpha [3] = experiment: Herbicidal activity against Medicago polymorpha infested wheat field assessed as weed dry weight at 60 g/ha applied at 32 to 35 days after sowing through sprayer measured 100 days after sowing (reference value: 313.7 g/m2)
Lepidium didymum [4] = experiment: Herbicidal activity against Lepidium didymum infested wheat field assessed as weed dry weight at 60 g/ha applied at 32 to 35 days after sowing through sprayer measured 100 days after sowing (reference value: 313.7 g/m2)
Phalaris minor [5] = experiment: Herbicidal activity against isoproturon-resistant Phalaris minor infested wheat field assessed as weed dry weight at 60 g/ha applied at 35 days after sowing through sprayer measured 95 days after sowing (reference value: 213.0 g/m2)
Melilotus albus [6] = experiment: Herbicidal activity against Melilotus albus infested wheat field assessed as weed dry weight at 60 g/ha applied at 32 to 35 days after sowing through sprayer measured 100 days after sowing (reference value: 313.7 g/m2)
Phalaris minor [7] = experiment: Herbicidal activity against isoproturon-resistant Phalaris minor infested wheat field assessed as wheat yield at 60 g/ha applied at 32 to 35 days after sowing through sprayer (reference value: 3.41 t/ha)
Phalaris minor [8] = experiment: Post-emergence herbicidal activity against isoproturon-resistant Phalaris minor infested wheat field assessed as reduction in weed dry weight at 280 g/ha applied on 1 after sowing through sprayer measured 120 days after sowing relative to control; design: scale not given: the % may be the effect or the level left
Phalaris minor [9] = experiment: Post-emergence herbicidal activity against isoproturon-resistant Phalaris minor infested wheat field assessed as reduction in weed dry weight at 25 g/ha applied on 1 after sowing through sprayer measured 120 days after sowing relative to control; design: scale not given: the % may be the effect or the level left
Lepidium didymum [10] = experiment: Herbicidal activity against Lepidium didymum infested wheat field assessed as weed dry weight at 120 g/ha applied at 32 to 35 days after sowing through sprayer in presence of surfactant MON 0818 measured 100 days after sowing (reference value: 313.7 g/m2)
Phalaris minor [11] = experiment: Herbicidal activity against isoproturon-resistant Phalaris minor infested wheat field assessed as wheat yield at 120 g/ha applied at 32 to 35 days after sowing through sprayer in presence of surfactant MON 0818 (reference value: 3.41 t/ha)
Melilotus albus [12] = experiment: Herbicidal activity against Melilotus albus infested wheat field assessed as weed dry weight at 120 g/ha applied at 32 to 35 days after sowing through sprayer in presence of surfactant MON 0818 measured 100 days after sowing (reference value: 313.7 g/m2)
Medicago polymorpha [13] = experiment: Herbicidal activity against Medicago polymorpha infested wheat field assessed as weed dry weight at 120 g/ha applied at 32 to 35 days after sowing through sprayer in presence of surfactant MON 0818 measured 100 days after sowing (reference value: 313.7 g/m2)
Phalaris minor [14] = experiment: Herbicidal activity against isoproturon-resistant Phalaris minor infested wheat field assessed as weed dry weight at 120 g/ha applied at 32 to 35 days after sowing through sprayer in presence of surfactant MON 0818 measured 100 days after sowing (reference value: 313.7 g/m2)
Phalaris minor [15] = experiment: Herbicidal activity against isoproturon-resistant Phalaris minor infested wheat field assessed as weed dry weight at 30 g/ha applied at 35 days after sowing through sprayer in presence of 0.5 % surfactant A 12127 measured 95 days after sowing (reference value: 213.0 g/m2)
Phalaris minor [16] = experiment: Herbicidal activity against isoproturon-resistant Phalaris minor infested wheat field assessed as wheat yield at 35 g/ha applied at 35 days after sowing through sprayer in presence of 0.5 % surfactant A 12127 measured 95 days after sowing (reference value: 3.05 t/ha)
Phalaris minor [17] = experiment: Herbicidal activity against isoproturon-resistant Phalaris minor infested wheat field assessed as wheat yield at 30 g/ha applied at 35 days after sowing through sprayer in presence of 0.5 % surfactant A 12127 measured 95 days after sowing (reference value: 3.05 t/ha)
Phalaris minor [18] = experiment: Herbicidal activity against isoproturon-resistant Phalaris minor infested wheat field assessed as weed dry weight at 35 g/ha applied at 35 days after sowing through sprayer in presence of 0.5 % surfactant A 12127 measured 95 days after sowing (reference value: 213.0 g/m2)
Phalaris minor [19] = experiment: Pre-emergence herbicidal activity against isoproturon-resistant Phalaris minor infested wheat field assessed as reduction in weed dry weight at 1250 g/ha applied on 1 after sowing through sprayer measured 120 days after sowing relative to control; design: scale not given: the % may be the effect or the level left
Phalaris minor [20] = experiment: Herbicidal activity against isoproturon-resistant Phalaris minor infested wheat field assessed as wheat yield at 1000 g/ha applied at 35 days after sowing through sprayer measured 95 days after sowing (reference value: 3.05 t/ha)
Phalaris minor [21] = experiment: Herbicidal activity against isoproturon-resistant Phalaris minor infested wheat field assessed as weed dry weight at 1000 g/ha applied at 32 to 35 days after sowing through sprayer measured 100 days after sowing (reference value: 313.7 g/m2)
Lepidium didymum [22] = experiment: Herbicidal activity against Lepidium didymum infested wheat field assessed as weed dry weight at 1000 g/ha applied at 32 to 35 days after sowing through sprayer measured 100 days after sowing (reference value: 313.7 g/m2)
Phalaris minor [23] = experiment: Post-emergence herbicidal activity against isoproturon-resistant Phalaris minor infested wheat field assessed as reduction in weed dry weight at 1000 g/ha applied on 1 after sowing through sprayer measured 120 days after sowing relative to control; design: scale not given: the % may be the effect or the level left
Melilotus albus [24] = experiment: Herbicidal activity against Melilotus albus infested wheat field assessed as weed dry weight at 1000 g/ha applied at 32 to 35 days after sowing through sprayer measured 100 days after sowing (reference value: 313.7 g/m2)
Phalaris minor [25] = experiment: Herbicidal activity against isoproturon-resistant Phalaris minor infested wheat field assessed as wheat yield at 1000 g/ha applied at 32 to 35 days after sowing through sprayer (reference value: 3.41 t/ha)
Medicago polymorpha [26] = experiment: Herbicidal activity against Medicago polymorpha infested wheat field assessed as weed dry weight at 1000 g/ha applied at 32 to 35 days after sowing through sprayer measured 100 days after sowing (reference value: 313.7 g/m2)
Phalaris minor [27] = experiment: Herbicidal activity against isoproturon-resistant Phalaris minor infested wheat field assessed as weed dry weight at 1000 g/ha applied at 35 days after sowing through sprayer measured 95 days after sowing (reference value: 213.0 g/m2)
Phalaris minor [28] = experiment: Herbicidal activity against isoproturon-resistant Phalaris minor infested wheat field assessed as weed dry weight at 120 g/ha applied at 32 to 35 days after sowing through sprayer measured 100 days after sowing (reference value: 313.7 g/m2)
Lepidium didymum [29] = experiment: Herbicidal activity against Lepidium didymum infested wheat field assessed as weed dry weight at 120 g/ha applied at 32 to 35 days after sowing through sprayer measured 100 days after sowing (reference value: 313.7 g/m2)
Phalaris minor [30] = experiment: Herbicidal activity against isoproturon-resistant Phalaris minor infested wheat field assessed as wheat yield at 120 g/ha applied at 32 to 35 days after sowing through sprayer (reference value: 3.41 t/ha)
Melilotus albus [31] = experiment: Herbicidal activity against Melilotus albus infested wheat field assessed as weed dry weight at 120 g/ha applied at 32 to 35 days after sowing through sprayer measured 100 days after sowing (reference value: 313.7 g/m2)
Medicago polymorpha [32] = experiment: Herbicidal activity against Medicago polymorpha infested wheat field assessed as weed dry weight at 120 g/ha applied at 32 to 35 days after sowing through sprayer measured 100 days after sowing (reference value: 313.7 g/m2)

How did the Crop_yield (Phalaris minor [1]) turn out when `C[C@@H](Oc1ccc(Oc2ncc(Cl)cc2F)cc1)C(=O)O` [CLODINAFOP] was run?
Its Crop_yield is 5.42 tons/ha.

What about the Activity (Phalaris minor [2]) of the same compound?
The Activity was 0.6 g/m2.

What about the Activity (Medicago polymorpha [3]) of the same compound?
Its Activity is 38.3 g/m2.

And the Activity (Lepidium didymum [4])?
The Activity was 38.3 g/m2.

What about the Activity (Phalaris minor [5]) of the same compound?
The Activity was 0.6 g/m2.

And the Activity (Melilotus albus [6])?
The Activity was 38.3 g/m2.

And the Crop_yield (Phalaris minor [7])?
The Crop_yield was 6.01 tons/ha.

Which Activity (Phalaris minor [8]) does the source give for `CSc1nnc(C(C)(C)C)c(=O)n1N` [METRIBUZIN] here?
Its Activity is 94.7%.

With `CCS(=O)(=O)c1nc2ccccn2c1S(=O)(=O)NC(=O)Nc1nc(OC)cc(OC)n1` [SULFOSULFURON] as the compound, how does the Activity (Phalaris minor [9]) read?
Its Activity is 93.8%.

What about the Activity (Lepidium didymum [10]) of the same compound?
The Activity was 1.8 g/m2.

And the Crop_yield (Phalaris minor [11])?
Its Crop_yield is 6.2 tons/ha.

And the Activity (Melilotus albus [12])?
The Activity was 1.8 g/m2.

What about the Activity (Medicago polymorpha [13]) of the same compound?
Its Activity is 1.8 g/m2.

And the Activity (Phalaris minor [14])?
Its Activity is 0.3 g/m2.

What does the source list for `CCc1cc(C)cc(CC)c1-c1c(OC(=O)C(C)(C)C)n2n(c1=O)CCOCC2` [PINOXADEN]?
Activity (Phalaris minor [15]): 2.3 g/m2; Crop_yield (Phalaris minor [16]): 5.38 tons/ha; Crop_yield (Phalaris minor [17]): 5.44 tons/ha; Activity (Phalaris minor [18]): 0.3 g/m2

For `CCC(CC)Nc1c([N+](=O)[O-])cc(C)c(C)c1[N+](=O)[O-]` [PENDIMETHALIN], which Activity (Phalaris minor [19]) is on record?
Its Activity is 88.5%.

Which results are given for `CC(C)c1ccc(NC(=O)N(C)C)cc1` [ISOPROTURON]?
Crop_yield (Phalaris minor [20]): 3.61 tons/ha; Activity (Phalaris minor [21]): 242 g/m2; Activity (Lepidium didymum [22]): 3 g/m2; Activity (Phalaris minor [23]): 26.2%; Activity (Melilotus albus [24]): 3 g/m2; Crop_yield (Phalaris minor [25]): 3.99 tons/ha; Activity (Medicago polymorpha [26]): 3 g/m2; Activity (Phalaris minor [27]): 179.2 g/m2

`C[C@@H](Oc1ccc(Oc2nc3ccc(Cl)cc3o2)cc1)C(=O)O` [FENOXAPROP-P] was tested. Which Activity (Phalaris minor [28]) did it give?
The Activity was 5.9 g/m2.

And the Activity (Lepidium didymum [29])?
The Activity was 25.2 g/m2.

And the Crop_yield (Phalaris minor [30])?
The Crop_yield was 5.96 tons/ha.

What about the Activity (Melilotus albus [31]) of the same compound?
The Activity was 25.2 g/m2.

What about the Activity (Medicago polymorpha [32]) of the same compound?
The Activity was 25.2 g/m2.
